Reference: patent publication US10391150B2, “Treatments for migraine and related disorders” (The University of Chicago, priority 2011, dated 2019)
Entries after “also recorded” stand apart in the source; their conditions may differ. Like-named read-outs stand apart in the source and are kept apart here.

Columns and labels:
Type in all cases: cell-based, rat
[1] = tested on: spreading depression (SD) in hippocampal slice cultures; assay: Spreading depression (SD) threshold / susceptibility in hippocampal slice cultures
Excerpt: FIGS. 2A-2E. […] (FIG. 2A) Experiments begin with determination of the current needed to maximize standard CA3 area field potential responses. Half-maximal intensity is then used to elicit CA3 area evoked field potentials from dentate gyrus bipolar electrical stimulation. This documents the normalcy of evoked synaptic responses between preparations. If a slice's field excitatory post synaptic potentials are not at least 3 mV, slices are discarded. Next, field potential trains (i) are noted to verify that preparations are healthy enough to follow 10 Hz stimulation (e.g., amplitudes of vertical deviations in fast potential records are similar) and the current needed to trigger SD (ii) is registered (Pusic and Kraig, 2010).
(FIG. 8a) Exemplary CA3 area evoked field potential. Experiments begin with establishment of the current intensity needed to evoke maximal field potential responses; stimuli of half-maximal intensity were then used to elicit subsequent field potentials. Only those cultures with CA3 pyramidal neuron post-synaptic responses of at least 3 mV were used for experiments. (FIG. 8b) CA3 response to dentate gyrus bipolar stimulation (10 pulses at 10 Hz, 500 μA) was used to elicit a spreading depression (SD), as shown in (FIG. 8c). (FIG. 8c) The spreading depression (SD) shown here was induced by the stimulation/response (arrow) shown in (FIG. 8b). […] Comparisons between groups made via Student's t-test.
The inventors induced SD trans-synaptically in rat HSC using electrical stimuli (100 μs pulses @ 10 Hz for 1 s) ranging from 1 to 10,000 nC in order to determine SD threshold in sham and experimental groups (Pusic et al., 2011). Results were based on n≥3-6/group. […] This insulin dose approximates the pharmacological levels seen in humans treated with nasal insulin.
Slice cultures were prepared and maintained as previously described (Mitchell et al., 2010a,). After 18 days in vitro (DIV), slice cultures were transferred to serum-free media that included additional calcium and magnesium. Cultures were screened at 21 DIV to ensure no pyramidal neuron death was present. Standard electrophysiological recordings were performed by placing a slice culture insert in a PDMI recording chamber with controlled temperature and pH (FIG. 1). The recording chamber was aerated with 5% CO2-balance air at 36° C. and media flowing at 1.2 mL/min or was held static around the slice culture insert. A recording electrode was placed at the CA3 pyramidal cell layer and a stimulating electrode was placed at the surface of the dentate gyrus. Recordings were initiated prior to placing the stimulating electrode on the culture to ensure no spreading depression was triggered as a result.
Studies began with determination of the current needed to maximize standard CA3 area field potential responses. This documented the normalcy of evoked synaptic responses between preparations. If a slice's field EPSPs were not at least 3-4 mV, it was discarded.
Next, trans-synaptically evoked SD was determined. Here, the inventors stimulated slices via the dentate gyrus with 100 μs pulses delivered at 10 Hz for 1 sec every 1-2 minutes at increasing μA current intensities until SD occurred.
Slice cultures are prepared, maintained, and induced to fire SD as previously described using trans-synaptic excitation of CA3, where SD is initiated (FIG. 4) (Kunkler et al., 2005; Pusic et al., 2011).

[2] = tested on: oxidative stress (OS) in hippocampal slice cultures; assay: Oxidative stress (OS) by CellROX fluorescence in hippocampal slice cultures (CA3)
Description: FIGS. 4A-4F Oxidative stress (OS) from SD and its reduction by IGF-1. (FIG. 4A) Normal cytoarchitecture of a hippocampal slice culture showing pyramidal neuron areas of CA1, dentate gyrus (DG), and the imaging zone for the inventors' work here (dotted line), CA3. (FIG. 4B) OS was measured using CellROX, a fixable fluorescent marker from Invitrogen. […] (FIG. 4D) This reduction versus control SD was significant (p<0.02; n=4 & 5). (FIG. 4E) CellROX can be used to measure relative OS in specific brain cell types.
FIGS. 9a-9f IGF-1 decreased oxidative stress from spreading depression. (FIG. 9a) NeuN immunohistochemical labeling of a hippocampal slice culture, for cytoarchitectural reference and to show the CA3 area of interest (dotted line box) used for quantification of oxidative stress (OS) via CellROX™ fluorescence intensity. (FIGS. 9b-c) Representative CellROX™-labeled hippocampal slices exposed to SD (FIG. 9b) and to 3-day IGF-1 incubation followed by spreading depression (SD) (FIG. 9c). Dotted line boxes illustrate CA3 areas of interest used for relative OS quantifications. […] Again, seven day treatments consisted of exposing cultures to IGF-1 for 12 hours a day for seven days. Note: IGF-1 exposure was continued for the additional 24 hour CellROX™ incubation. Scale bars=400 μm (a) and 200 μm (b and c). Comparisons between groups were made via ANOVA plus Holm-Sidak post hoc testing.
(§1) FIGS. 11a-11g IGF-1 decreased CA3 oxidative stress (OS) and its related hyperexcitability. […] Relative evoked excitability was determined as a sum of responses seen (e.g., responses of “2” and a “3” yielded an overall excitability score of five). […] (FIGS. 11d-e) Exemplary images of control (FIG. 11d) slice culture OS compared to increased slice OS induced by exposure to menadione (FIG. 11e). Calibration bar, 200 Dotted boxes indicate CA3 areas of interest used for relative OS quantifications (f and g).
Oxidative stress from SD preferentially rises in astrocytes and microglia, with the latter effect mitigated by IGF-1 (FIG. 13). The inventors have recently shown that spreading depression (SD), the most likely cause of migraine aura and perhaps migraine (Lauritzen and Kraig, 2005), occurs with increased oxidative stress (OS) and that OS, in turn, increases SD susceptibility (Grinberg et al., 2012). Reactive oxygen and nitrogen species that cause OS have both autocrine and paracrine signaling capacities that can affect SD susceptibility by altering excitability (Kishida and Klann, 2007). Accordingly, the inventors looked for the cellular origin of OS from SD. Here the inventors used hippocampal slice cultures (HSC) to probe for cell-specific changes in OS from SD. SD was induced trans-synaptically in rat HSCs using bipolar electrical stimuli at the dentate gyrus (Pusic et al., 2011). Six SDs were induced every 7-9 min over an hr, followed by 24 hr incubation in CellROX™, a fixable fluorogenic probe for measuring OS (Grinberg et al., 2012). HSCs were then fixed in 10% buffered formalin phosphate. Other fixatives (PLP, 4% paraformaldehyde) prevented detection of OS change. Tissue was then labeled for neurons (anti-NeuN), oligodendrocytes (anti-RIP), astrocytes (anti-GFAP), or for microglia (isolectin GS-IB4).

[3] = tested on: CA3 area evoked excitability; design: key to evoked excitability response rating: a normal field potential (FP; left) was rated “1”; a FP that included stimulus-related bursting activity (center) was rated “2”; a stimulus that resulted in spreading depression (right) was rated is a “3”; conditions: for evoked excitability versus control: H2O2 exposure
Description: as §1

## Insulin-like growth factor 1 [IGF-1]
[1]; 3-day exposure to IGF-1
  increase of SD threshold compared to control: 75 fold
[1]; 7-day phasic exposure to IGF-1 (12 hours a day)
  increase of SD threshold compared to control: 22 fold
[1]; acute (15-30 min) exposure to IGF-1
  increase of SD threshold compared to control: 24 fold
[1]; coincubation with ascorbate and IGF-1 versus IGF-1 alone
  relative SD threshold levels: 1.00±0.31
[2]; 3-day IGF-1 alone
  baseline slice culture OS versus control: significantly reduce baseline OS; also recorded: reduced slice culture OS
[2]; 3-day exposure to IGF-1
  decrease in OS from SD: 30%
[2]; 7-day exposure to IGF-1 alone
  reduction of baseline OS levels compared with controls: 26%
[2]; 7 days IGF-1, phasic
  decrease in OS from SD: 73%
[2]; IGF-1 (40 ng/mL) for 3 days prior to SD
  increased OS induced by SD: reduction in OS; also recorded: abrogated
[2]; IGF-1 acutely
  increased OS induced by SD: abrogated
[2]; IGF-1 for 7 days prior to SD, 12 hours a day
  increased OS induced by SD: significantly reduced
[2]; acute IGF-1 exposure alone
  baseline slice culture OS versus control: did not reduced slice culture OS
[2]; acute treatment with IGF-1
  decrease in OS from SD: 20%
[2]; menadione exposure, without or with acute IGF-1
  OS induced by menadione versus control: abrogated; also recorded: reduced OS from menadione
[2]; pretreatment with IGF-1 for 3 days
  OS induced by menadione versus control: abrogated; also recorded: reduced menadione-induced significant increase in OS
[3]; without or with IGF-1 pretreatment for 3 days
  evoked excitability versus control: abrogated; also recorded: non-significant difference from control
[3]; without or with acute IGF-1, 30 minutes after H2O2
  evoked excitability versus control: abrogated
[3]; IGF-1 exposure alone
  CA3 area evoked excitability: no significant impact
  evoked excitability response rating: 1

B1: Interferon-gamma (protein, listed as Homo sapiens)
chain: MKYTSYILAFQLCIVLGSLGCYCQDPYVKEAENLKKYFNAGHSDVADNGTLFLGILKNWKEESDRKIMQSQIVSFYFKLFKNFKDDQSIQKSVETIKEDMNVKFFNSNKKKRDDFEKLTNYSVTDLNVQRKAIHELIQVMAELSPAAKTGKRKRSQMLFRGRRASQ
[1]; IFN-γ 500 U/mL, at 1 day
  susceptibility to SD: significantly increased susceptibility to SD
[2]; transient (pulsed) IFN-γ 500 U/mL × 12 hours, assessed seven days later
  OS: OS is reduced; also recorded: similarly reduced
